Experimental data reported in patent US20090061515A1, “Methods of inhibiting or suppressing cellular proliferation” (priority 2007, published 2009).

Each molecule was assayed on Human Coronary Artery Endothelial Cells (HCAEC) (assay: CyQuant cell number / proliferation, HCAEC (Example 7)). Settings: 1 mg/ml, after 96 hours post agent treatment, not following 24 hours exposure only.
Format: cell-based
Experimental: Cells were exposed to the test compounds for 24 to 48 hours and then allowed to grow for 96 hours in regular media (without test compound). The final concentrations for cell treatment were as follows: compounds 13358-18-1, 13358-18-2, 13358-18-4, and 13358-18-6 were evaluated at 10 mg/ml, 1 mg/ml, 100 micrograms/ml, and 10 micrograms/ml. Compounds 13358-18-3 and 13358-18-5 were evaluated at 50 mg/ml, 10 mg/ml, 1 mg/ml, and 100 micrograms/ml.
Three assays were used to look at the proliferation, viability and cytotoxicity of the compounds on the cells. A non-radioactive cytotoxicity assay available under the trade designation CytoTox 96 from Promega Corporation (Madison, Wis.) is designed to determine the cytotoxicity of a substance by quantitatively measuring the presence of lactate dehydrogenase (LDH) in cell culture supernatant. LDH is released in cells that are undergoing cell death and the assay converts it to a red formazan product that can allows for the proportional amount of LDH absorbance to be read. A cell proliferation assay available under the trade designation CyQuant from Invitrogen Corporation (Carlsbad, Calif.) determines the density of cells in culture by eluding a green fluorescent dye which fluoresces when bound to cellular nucleic acids. The amount of nucleic acid present is proportional to the amount of living cells in culture, therefore an accurate cell count can be obtained. A luminescent cell viability assay available under the trade designation CellTiter-Glo from Promega Corporation (Madison, Wis.) uses the amount ATP present in the cell cytoplasm as an indicator for metabolic activity. The amount of ATP present is proportional to the measured amount of a luminescent signal. This assay was used to confirm if the cells are still viable after exposure to the test compounds.
`CC(=O)CCC(O)C(O)c1ccccc1` (stereo not drawn) [Compound 13358-18-1, 5,6-dihydroxy-6-phenyl-hexan-2-one] was tested, and the “cell number and viability” value was “some antiproliferative effect with viable cells”.
With `O=C1CCCCC1CC(O)CO` (stereo not drawn) [Compound 13358-18-4, 2-(2′,3′-dihydroxypropyl)-cyclohexanone] the “cell number and viability” value was “some antiproliferative effect with viable cells”.
In the case of `CC(=O)OCC(O)CO` (stereo not drawn) [Compound 13358-18-5, 2,3-dihydroxy-propyl acetate], the “cell number and viability” value is reported as “some antiproliferative effect with viable cells”.
